Results as given in ChEMBL document CHEMBL4002554, “Terpenoids from Melampodium perfoliatum” (2016).

Columns and labels:
[1] = system: Mus musculus; assay: Anti-inflammatory activity in TPA-induced CD1 mouse ear acute inflammation model assessed as reduction in TPA-induced ear edema at 1 mg/ear administered topically 10 mins prior to TPA challenge measured after 4 hrs relative to control; format: functional
[2] = system: Mus musculus; assay: Anti-inflammatory activity in TPA-induced CD1 mouse ear acute inflammation model assessed as reduction in TPA-induced ear edema administered topically 10 mins prior to TPA challenge measured after 4 hrs; format: functional

Structure (SMILES)	inhibition (INH) [1] [%]	ID50 [2] [µmol]	inhibition [2]
C=C1C(=O)O[C@H]2[C@H]1[C@H](OC(=O)[C@]1(C)O[C@@H]1C)[C@@H](OC(=O)[C@]1(C)O[C@@H]1C)/C(C(=O)OC)=C\CC[C@@]1(C)O[C@H]21	<50		
COc1ccc2c(c1)c(CC(=O)O)c(C)n2C(=O)c1ccc(Cl)cc1 [INDOMETHACIN]		0.24	
C=C1C(=O)O[C@@H]2/C=C(\C)[C@@H]3O[C@@H]3/C=C(/C(=O)OC)[C@H](O)[C@@H](OC(=O)[C@]3(C)O[C@@H]3C)[C@@H]12 [MELAMPODIN A]		1.14	Dose-dependent effect
CC1(C)[C@H]2CC[C@@]34C[C@@H](CC[C@H]3[C@]2(C)CC[C@@H]1O)[C@@](O)(CO)C4	<50		
CC(C)=CC(=O)C[C@@]12O[C@@H]1CC[C@]1(C)O[C@](C)(C(O)CO)CC[C@@H]1OC2=O (some centres not stated)		1.49	Dose-dependent effect
C=C1C(=O)O[C@@H]2/C=C(\C)CC/C=C(/C(=O)OC)[C@H](O)[C@@H](OC(=O)/C(C)=C\C)[C@@H]12		0.56	Dose-dependent effect
C=C1C(=O)O[C@@H]2/C=C(\C)CC/C=C(/C(=O)OC)[C@H](O)[C@@H](OC(=O)[C@]3(C)O[C@@H]3C)[C@@H]12		1.15	Dose-dependent effect
C=C1C(=O)O[C@@H]2/C=C(\C)[C@@H]3O[C@@H]3/C=C(/C(=O)OC)[C@H](OC(=O)[C@]3(C)O[C@@H]3C)[C@@H](OC(=O)[C@]3(C)O[C@@H]3C)[C@@H]12	<50		
